This is an account of results in patent publication US20070088069A1, “Novel imidazoles” (Warner-Lambert Company LLC, priority 2005, published 2007).

The test system of test [1] is Sterol Biosynthesis in L6 Rat Myoblast. Nature of the test: Sterol biosynthesis in L6 rat myoblast (14C acetic acid into cholesterol). The settings on record: 3 hours pre-incubation, 3 hours 14C acetic acid labeling. The class given is cell-based. The procedure:
L6 rat myoblast purchased from ATCC(CRL-1458) were grown in T-150 vented culture flasks and seeded on 12-well culture plates at a density of 60,000 cells per well. The cells were grown in DMEM, (Dulbecco's Modified Eagle Medium) (Gibco, #10567-014) containing 10% heat inactivated FBS (Fetal Bovine Serum) (Gibco # 10082-139) for 72 hours until reaching confluence. The cells were pre-incubated in media with compound and 0.2% DMSO (dimethyl sulfoxide) for 3 hours and then labeled by incubating in medium containing compound, 0.2% DMSO and 1 μCi/per mL of ^14C acetic acid for an additional 3 hours. After labeling, the cells were washed once with 1×PBS (Gibco #14190-144) then lysed overnight at 4° C. in buffer containing 10% KOH and 78% (vol.) ethanol.
Lipid ester bonds were hydrolyzed by saponification of the lysates at 60° C. for 2 hours. […] The amount of ^14C cholesterol was quantified by scintillation counting in a Trilux 1450 plate reader (Wallac). The IC50 values were calculated from % inhibitions relative to negative controls vs. compound concentration on Microsoft excel 2000 data analysis wizard using a sigmoid inhibition curve model with formula: y=Bmax(1−(x^n/K^n+x^n))+y2 Where K is the IC50 for the inhibition curve, X is inhibitor concentration, Y is the response being inhibited and Bmax+Y2 is the limiting response as X approaches zero.

The subject of test [2] is Sterol Biosynthesis in Rat Hepatocytes. Nature of the test: Sterol biosynthesis in rat hepatocytes (14C acetic acid into cholesterol). Format: cell-based. The settings on record: Hepatocyte, 4 hrs pre-incubation, 4 hrs 14C acetic acid labeling, read-out: IC50 in the cell assay (sterol biosynthesis in rat hepatocytes). The procedure: Frozen rat hepatocytes purchased from XenoTech (cat# N400572) were seeded on 6-well collagen I coated plates at a density of 10^5 cells/per well. The cells were grown in DMEM, (Dulbecco's Modified Eagle Medium) (Gibco, #11054-020) containing 10% FBS (Fetal Bovine Serum) and 10 mM HEPES, (N-2-hydroxyethyl-piperazine-N^1-2-ethane sulfonic acid) (Gibco # 15630-080) for 24 hrs. The cells were pre-incubated with compounds for 4 hrs and then labeled by incubating in medium containing 1 μCi/per mL of ^14C acetic acid for an additional 4 hrs. After labeling, the cells were washed twice with 5 mM MOPS, (3-[N-morpholino]propane sulfonic acid) solution containing 150 mM NaCl and 1 mM EDTA and collected in the lysis buffer containing 10% KOH and 80% (vol.) ethanol.
In order to separate labeled cholesterol from labeled non-cholesterol lipids, the cells lysates were subject to saponification at 60° C. for 2 hrs. The lysates were then combined with 0.5 volume of H2O and 2 volumes of hexane, followed by 30 minutes of vigorous shaking. After the separation of two phases, the upper-phase solution was collected and combined with 5 volumes of scintillation cocktail. The amount of ^14C cholesterol was quantified by liquid scintillation counting. The IC50 values were calculated with GraphPad software (Prism 3.03).

For test [3], the target named is T1, HMGCoA (3-Hydroxy-3-methylglutaryl CoA) Reductase (Rattus norvegicus, UniProt P51639).
T1 construct: from tissue; host or cells: liver microsomes of male Sprague-Dawley rats fed cholestyramine
T1 sequence (P51639 1-887): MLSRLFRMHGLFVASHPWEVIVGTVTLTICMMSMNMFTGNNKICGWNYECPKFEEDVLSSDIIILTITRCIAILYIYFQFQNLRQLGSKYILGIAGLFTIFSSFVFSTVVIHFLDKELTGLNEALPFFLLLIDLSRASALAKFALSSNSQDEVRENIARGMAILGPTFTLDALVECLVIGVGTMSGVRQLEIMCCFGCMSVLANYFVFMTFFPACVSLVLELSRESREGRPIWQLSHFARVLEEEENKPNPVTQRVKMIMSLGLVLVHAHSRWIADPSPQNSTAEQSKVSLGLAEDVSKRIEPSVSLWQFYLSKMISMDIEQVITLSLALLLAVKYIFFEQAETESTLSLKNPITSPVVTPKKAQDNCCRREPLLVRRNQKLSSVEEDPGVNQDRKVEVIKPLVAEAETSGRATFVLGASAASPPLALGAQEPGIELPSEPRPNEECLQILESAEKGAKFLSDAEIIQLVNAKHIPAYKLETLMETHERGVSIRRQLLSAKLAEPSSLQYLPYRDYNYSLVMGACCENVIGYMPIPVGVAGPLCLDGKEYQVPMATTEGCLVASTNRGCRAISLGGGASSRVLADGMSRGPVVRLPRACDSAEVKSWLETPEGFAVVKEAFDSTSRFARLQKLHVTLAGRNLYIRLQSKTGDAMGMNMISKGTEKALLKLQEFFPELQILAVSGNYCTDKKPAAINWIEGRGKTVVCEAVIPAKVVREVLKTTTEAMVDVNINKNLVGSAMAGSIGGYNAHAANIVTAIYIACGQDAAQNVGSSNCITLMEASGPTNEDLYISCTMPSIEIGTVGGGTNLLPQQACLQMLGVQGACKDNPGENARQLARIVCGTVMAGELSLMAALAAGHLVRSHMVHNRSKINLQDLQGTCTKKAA
Nature of the test: HMGCoA reductase assay with rat liver microsomes. The settings on record: 14C-HMGCoA, 45 min at 37° C., read-out: IC50 in the in vitro HMGCoA reductase assay. Format: biochemical. The procedure:
Male Charles River Sprague-Dawley rats were fed with 2.5% cholestyramine in rat chow diets for 5 days before sacrificing. Livers were minced and homogenized in a sucrose homogenizing solution in an ice bath 10 times. Homogenates were diluted into a final volume of 200 mL, and centrifuged 15 min. with a Sorvall Centrifuge at 5° C., 10,000 rpm (12,000×G). The upper fat layer was removed and the supernatant decanted into fresh tubes. This step was repeated one more time before transferring the supernatant into ultracentrifuge tubes and centrifuged at 36,000 rpm (105,000×G) for an hour at 5° C. The resulting supernatant was discarded and the pellet was added to total of 15 mL 0.2 M KH2PO4. Pellets were homogenized gently by hand about 10 times. Samples were pooled and diluted into total of 60 mL buffer. The protein concentration of the homogenate was determined by the […] using a BCA (Bicinchoninic acid), kit from Pierce Chemical Company. 1 mL aliquots of microsomes were kept frozen in liquid nitrogen.
[3-^14C]-HMGCoA (57.0 mCi/mmol) was purchased from Amersham Biosciences, UK. […] Scintillation cocktail (Ultima-Flo-M) was added into each well and plates counted on a Trilux Microbeta Counter. The IC50 values were calculated with GraphPad software (Prism). […]
Background: Liver microsomes are a subcellular fraction often used to study metabolism.

Usually IC50 stands for the midpoint of a concentration-inhibition curve. Turning to `C[C@@H](NC(=O)c1nc(-c2ccc(F)cc2)n(CC[C@@H](O)C[C@@H](O)CC(=O)O)c1C1CC1)c1ccccc1` [Example 1, Sodium: (3R,5R)-7-[5-Cyclopropyl-2-(4-fluoro-phenyl)-4-((R)-1-Phenyl-ethylcarbamoyl)-imidazol-1-yl]-3,5-dihydroxy-heptanoate], the IC50 in test [1] came to 449 nM.

On to `C[C@H](c1ccccc1)N(C)C(=O)c1nc(-c2ccc(F)cc2)n(CC[C@@H](O)C[C@@H](O)CC(=O)O)c1C1CC1` [Example 2, Sodium; (3R,5R)-7-{5-Cyclopropyl-2-(4-fluoro-phenyl)-4-[methyl-((R)-1-phenyl-ethyl)-carbamoyl]-imidazol-1-yl}-3,5-dihydroxy-heptanoate], for which the values for the IC50 in test [2] and in test [3] were 0.27 nM and 36.8 nM, respectively.
